Data as given in patent publication US20260027116A1, “Methods of Treating Chronic Graft-Versus-Host Disease Following Allogeneic Hematopoietic Stem Cell Transplantation” (Kadmon Corporation, LLC, priority 2022, published 2026).

System: patients with cGVHD
Conditions: Cohort 1 200 mg QD
Procedure: All responses were assessed by the investigators.
Reported Adverse Events. […] All-cause mortality data collected during the study were assessed for all enrolled participants. Disease progression related death was not reported as AE.
Number of Participants With Treatment-emergent Adverse Events (TEAEs), and Treatment-emergent Serious Adverse Events (TESAEs). […] TEAEs included both SAEs and non-SAEs. […] Analysis was performed on safety population which included all participants who received at least 1 dose of study medication.

## CC(C)NC(=O)COc1cccc(-c2nc(Nc3ccc4[nH]ncc4c3)c3ccccc3n2)c1 [Belumosudil, 2-{3-[4-(1H-indazol-5-ylamino)-2-quinazolinyl]phenoxy}-N-(propan-2-yl) acetamide]
  Grade ≥3 Lung infection or pneumonia, No. (%): 1 (6)
  Graft versus host disease in gastrointestinal tract: # Events: 1
  Graft versus host disease in gastrointestinal tract: Affected/At Risk (%): 1/17 (5.88%)
  Gynaecomastia: # Events: 0
  Gynaecomastia: Affected/At Risk (%): 0/17 (0%)
  Haematuria: # Events: 1
  Haematuria: Affected/At Risk (%): 1/17 (5.88%)
  Hair growth abnormal: # Events: 1
  Hair growth abnormal: Affected/At Risk (%): 1/17 (5.88%)
  Headache: # Events: 4
  Headache: Affected/At Risk (%): 4/17 (23.53%)
  Hodgkin's disease recurrent: # Events: 1
  Hodgkin's disease recurrent: Affected/At Risk (%): 1/17 (5.88%)
  Hordeolum: # Events: 1
  Hordeolum: Affected/At Risk (%): 1/17 (5.88%)
  Hot flush: # Events: 1
  Hot flush: Affected/At Risk (%): 1/17 (5.88%)
  Hyperglycemia: # Events: 2
  Hyperglycemia: Affected/At Risk (%): 2/17 (11.76%)
  Hyperhidrosis: # Events: 0
  Hyperhidrosis: Affected/At Risk (%): 0/17 (0%)
  Hyperkalaemia: # Events: 7
  Hyperkalaemia: Affected/At Risk (%): 3/17 (17.65%)
  Hypertension: # Events: 8
  Hypertension: Affected/At Risk (%): 5/17 (29.41%)
  Hyperthyroidism: # Events: 0
  Hyperthyroidism: Affected/At Risk (%): 0/17 (0%)
  Hypertriglyceridaemia: # Events: 0
  Hypertriglyceridaemia: Affected/At Risk (%): 0/17 (0%)
  Hyperuricaemia: # Events: 6
  Hyperuricaemia: Affected/At Risk (%): 1/17 (5.88%)
  Hypoaesthesia: # Events: 2
  Hypoaesthesia: Affected/At Risk (%): 1/17 (5.88%)
  Hypocalcaemia: # Events: 0
  Hypocalcaemia: Affected/At Risk (%): 0/17 (0%)
  Hypogonadism: # Events: 1
  Hypogonadism: Affected/At Risk (%): 1/17 (5.88%)
  Hypokalaemia: # Events: 1
  Hypokalaemia: Affected/At Risk (%): 1/17 (5.88%)
  Hypomagnesaemia: # Events: 1
  Hypomagnesaemia: Affected/At Risk (%): 1/17 (5.88%)
  Hyponatraemia: # Events: 1
  Hyponatraemia: Affected/At Risk (%): 1/17 (5.88%)
  Hypophosphataemia: # Events: 1
  Hypophosphataemia: Affected/At Risk (%): 1/17 (5.88%)
  Hypothermia: # Events: 0
  Hypothermia: Affected/At Risk (%): 0/17 (0%)
  Hypothyroidism: # Events: 2
  Hypothyroidism: Affected/At Risk (%): 1/17 (5.88%)
  Hypoxia: # Events: 1
  Hypoxia: Affected/At Risk (%): 1/17 (5.88%)
  Impaired healing: # Events: 1
  Impaired healing: Affected/At Risk (%): 1/17 (5.88%)
  Influenza like illness: # Events: 1
  Influenza like illness: Affected/At Risk (%): 1/17 (5.88%)
  Influenza: # Events: 2
  Influenza: Affected/At Risk (%): 2/17 (11.76%)
  Insomnia: # Events: 0
  Insomnia: Affected/At Risk (%): 0/17 (0%)
  Irritability: # Events: 1
  Irritability: Affected/At Risk (%): 1/17 (5.88%)
  Joint range of motion decreased: # Events: 0
  Joint range of motion decreased: Affected/At Risk (%): 0/17 (0%)
  Lacrimation increased: # Events: 0
  Lacrimation increased: Affected/At Risk (%): 0/17 (0%)
  Leukaemia recurrent: # Events: 1
  Leukaemia recurrent: Affected/At Risk (%): 1/17 (5.88%)
  Leukocytosis: # Events: 1
  Leukocytosis: Affected/At Risk (%): 1/17 (5.88%)
  Ligament sprain: # Events: 1
  Ligament sprain: Affected/At Risk (%): 1/17 (5.88%)
  Limb injury: # Events: 1
  Limb injury: Affected/At Risk (%): 1/17 (5.88%)
  Macular degeneration: # Events: 0
  Macular degeneration: Affected/At Risk (%): 0/17 (0%)
  Migraine: # Events: 0
  Migraine: Affected/At Risk (%): 0/17 (0%)
  Muscle spasms: # Events: 1
  Muscle spasms: Affected/At Risk (%): 1/17 (5.88%)
  Muscle spasticity: # Events: 1
  Muscle spasticity: Affected/At Risk (%): 1/17 (5.88%)
  Muscular weakness: # Events: 6
  Muscular weakness: Affected/At Risk (%): 4/17 (23.53%)
  Musculoskeletal chest pain: # Events: 1
  Musculoskeletal chest pain: Affected/At Risk (%): 1/17 (5.88%)
  Myalgia: # Events: 2
  Myalgia: Affected/At Risk (%): 1/17 (5.88%)
  Nail disorder: # Events: 1
  Nail disorder: Affected/At Risk (%): 1/17 (5.88%)
  Nasal congestion: # Events: 3
  Nasal congestion: Affected/At Risk (%): 3/17 (17.65%)
  Nausea: # Events: 10
  Nausea: Affected/At Risk (%): 6/17 (35.29%)
  Neck pain: # Events: 1
  Neck pain: Affected/At Risk (%): 1/17 (5.88%)
  Nephrotic syndrome: # Events: 1
  Nephrotic syndrome: Affected/At Risk (%): 1/17 (5.88%)
  Neuropathy peripheral: # Events: 0
  Neuropathy peripheral: Affected/At Risk (%): 0/17 (0%)
  Neutrophil count decreased: # Events: 1
  Neutrophil count decreased: Affected/At Risk (%): 1/17 (5.88%)
  Nocturia: # Events: 1
  Nocturia: Affected/At Risk (%): 1/17 (5.88%)
  Non-cardiac chest pain: # Events: 0
  Non-cardiac chest pain: Affected/At Risk (%): 0/17 (0%)
  Obesity: # Events: 2
  Obesity: Affected/At Risk (%): 2/17 (11.76%)
  Oedema peripheral: # Events: 3
  Oedema peripheral: Affected/At Risk (%): 3/17 (17.65%)
  Oedema: # Events: 0
  Oedema: Affected/At Risk (%): 0/17 (0%)
  Oesophageal ulcer: # Events: 0
  Oesophageal ulcer: Affected/At Risk (%): 0/17 (0%)
  Oral candidiasis: # Events: 3
  Oral candidiasis: Affected/At Risk (%): 2/17 (11.76%)
  Oropharyngeal pain: # Events: 1
  Oropharyngeal pain: Affected/At Risk (%): 1/17 (5.88%)
  Orthopnoea: # Events: 1
  Orthopnoea: Affected/At Risk (%): 1/17 (5.88%)
  Osteonecrosis: # Events: 1
  Osteonecrosis: Affected/At Risk (%): 1/17 (5.88%)
  Osteopenia: # Events: 0
  Osteopenia: Affected/At Risk (%): 0/17 (0%)
  Osteoporosis: # Events: 0
  Osteoporosis: Affected/At Risk (%): 0/17 (0%)
  Overdose: # Events: 1
  Overdose: Affected/At Risk (%): 1/17 (5.88%)
  Pain in extremity: # Events: 2
  Pain in extremity: Affected/At Risk (%): 2/17 (11.76%)
  Pain: # Events: 3
  Pain: Affected/At Risk (%): 3/17 (17.65%)
  Palpitations: # Events: 1
  Palpitations: Affected/At Risk (%): 1/17 (5.88%)
  Paraesthesia: # Events: 0
  Paraesthesia: Affected/At Risk (%): 0/17 (0%)
  Pericardial effusion: # Events: 1
  Pericardial effusion: Affected/At Risk (%): 1/17 (5.88%)
  Peripheral coldness: # Events: 1
  Peripheral coldness: Affected/At Risk (%): 1/17 (5.88%)
  Peripheral sensory neuropathy: # Events: 0
  Peripheral sensory neuropathy: Affected/At Risk (%): 0/17 (0%)
  Phlebitis: # Events: 0
  Phlebitis: Affected/At Risk (%): 0/17 (0%)
  Photophobia: # Events: 0
  Photophobia: Affected/At Risk (%): 0/17 (0%)
  Platelet count decreased: # Events: 3
  Platelet count decreased: Affected/At Risk (%): 1/17 (5.88%)
  Pleural effusion: # Events: 1
  Pleural effusion: Affected/At Risk (%): 1/17 (5.88%)
  Pneumonia respiratory syncytial viral: # Events: 0
  Pneumonia respiratory syncytial viral: Affected/At Risk (%): 0/17 (0%)
  Pneumonia: # Events: 2
  Pneumonia: Affected/At Risk (%): 1/17 (5.88%)
  Pollakiuria: # Events: 1
  Pollakiuria: Affected/At Risk (%): 1/17 (5.88%)
  Presyncope: # Events: 0
  Presyncope: Affected/At Risk (%): 0/17 (0%)
  Productive cough: # Events: 2
  Productive cough: Affected/At Risk (%): 2/17 (11.76%)
  Proteinuria: # Events: 2
  Proteinuria: Affected/At Risk (%): 2/17 (11.76%)
  Pruritus: # Events: 1
  Pruritus: Affected/At Risk (%): 1/17 (5.88%)
  Pseudomonas infection: # Events: 1
  Pseudomonas infection: Affected/At Risk (%): 1/17 (5.88%)
  Pulmonary mass: # Events: 0
  Pulmonary mass: Affected/At Risk (%): 0/17 (0%)
  Pyrexia: # Events: 3
  Pyrexia: Affected/At Risk (%): 1/17 (5.88%)
